Measurements: patent publication US6620911B1, “Anti-cryptococcal peptides” (Arizona Board of Regents, acting for and on behalf of …, priority 1998, dated 2003)
Where two headings read alike, the source gives them in different places.

How the values were obtained:
[1] = mice, intravenous injection; cited from earlier work
Rhizopus oligosporus = experiment: Broth macrodilution susceptibility testing of filamentous fungi; format: cell-based; settings: ATCC 22959
Description: (§1) Broth macrodilution susceptibility testing of Aspergillus fumigatus and Rhizopus oligosporus was performed according to a proposed standardized procedure (Espinel-Ingroff et al., Multicenter evaluation of a proposed standardized procedure for antifungal susceptibility testing of filamentous fungi, J Clin Microbiol 1997, 35: 139-43) with slight modification. To induce conidium and sporangiospore formation, A. fumigatus and R. oligosporus were grown on PDA slants at 35° C. for 6 days. Fungal slants were covered with 1 ml of sterile 0.85% NaCl, and suspensions made by gently probing the colonies with the tip of a sterile pasteur pipette. The resulting mixture of hyphal fragments and conidia or sporangiospores was withdrawn, transferred to a sterile clear microfuge tube, and heavy particles were allowed to settle for 10 min. […] Susceptibility to the synthetic peptides was then determined by broth macrodilution assays as described above for the yeast cultures. MICs for the filamentous fungi were read after 24 h.
(§2) Minimum fungicidal concentrations (MFCs) were determined by subculturing 0.1 ml from each tube with no visible growth in the MIC broth macrodilution series onto drug-free SDA plates. […]

Aspergillus fumigatus = experiment: as above; format: cell-based; settings: ATCC 96918
Description: as §1, §2

[2] = test system: fluconazole-resistant Cryptococcus neoformans; format: cell-based
Excerpt: Clinical isolates of C. neoformans were obtained from patient cerebrospinal fluid, blood, bone marrow, sputum, bronchial lavage and wound infections at the University of Virginia Medical Center, Strains clinically resistant to fluconazole (See: Jessup, C. J. et al, 1997; Poster #F-88, 37th ICAAC, Toronto, Canada) were provided by the Center for Medical Mycology, Case Western Reserve University. Yeast strains (except for C. albidus and C. laurentii) were maintained by single colony transfer on Sabouraud Dextrose Agar (SDA), pH 5.6 at 35° C. Cryptococcus albidus, C. laurentii and C. uniguttulatus (#66033) were maintained on SDA, pH 6.6 at 25° C., C. uniguttulatus (#34143) and C. ater on Yeast Morphology (YM) agar at 25° C. and filamentous fungi were maintained on Potato Dextrose Agar (PDA) slants at 35° C.
(§3) Dolastatin 10 and modifications were screened against yeasts by the broth macrodilution assay according to the NCCLS (National Committee for Clinical Laboratory Standards, Reference Method for Broth Dilution Antifungal Susceptibility Testing of Yeasts: Approved Standard M27-A, NCCLS, Wayne, Pa., 1997). Yeasts were suspended and diluted as recommended to yield final inocula ranging from 0.5-2.5×10^3 colony forming units (CFU)/ml. Tests were performed in sterile 12×75 mm plastic tubes containing two-fold dilutions of the peptides in 0.165 M morpholinepropanesulfonic acid (MOPS)-buffered RPMI 1640 medium (pH 7.0). One tube was left drug-free for a turbidity control. Tubes were incubated without agitation at 35° C. (25° C. for C. albidus and C. laurentii). MICs were determined after 72 h for Cryptococcus, and after
(§4) 48 h for other yeast genera. The MIC was defined as the lowest concentration of compound that inhibited all visible growth of the test organism.
(§5) Minimum fungicidal concentrations (MFCs) were determined by subculturing 0.1 ml from each tube with no visible growth in the MIC broth macrodilution series onto drug-free SDA plates. The plates were incubated at 35° C. for 48 h for Cryptococcus (25° C. for C. alhidus and C. laurentii), and 35° C. for 24 h for all other yeast and filamentous fungi.

Cryptococcus laurentii [3] = experiment: Disk diffusion susceptibility testing; format: cell-based; settings: ATCC 66036
Description: (§6) Antimicrobial activity was assayed by disk susceptibility tests according to the NCCLS (National Committee for Clinical Laboratory Standards, Performance Standards for Antimicrobial Disk Susceptibility Tests-Sixth Edition: Approved standard M2-A6, NCCLS, Wayne, Pa., 1997). Inocula were adjusted to a density of 0.10 at 625 nm in SDA broth, and spread on SDA plates. Excess moisture was allowed to absorb for 10 min before applying dried disks containing two-fold dilutions of the drugs. Test plates were incubated at 35° C. (25° C. for C. albidus and C. laurentii), and zones of inhibition recorded after 48 h. The minimum inhibitory concentration (MIC) was defined as the lowest concentration of drug resulting in a clear zone of growth inhibition. Disk susceptibility testing of Staphylococcus aureus, Enterococcus faecalis, Escherichia coli and Neisseria gonorrhoeae was also performed.

Cryptococcus neoformans [4] = experiment: Disk diffusion susceptibility testing; format: cell-based; settings: ATCC 90112
Description: as §6

Candida albicans [5] = experiment: Disk diffusion susceptibility testing; format: cell-based; settings: ATCC 90028
Description: as §6

Candida glabrata [6] = experiment: Disk diffusion susceptibility testing; format: cell-based; settings: ATCC 90030
Description: as §6

Cryptococcus albidus [7] = experiment: Disk diffusion susceptibility testing; format: cell-based; settings: ATCC 66030
Description: as §6

[8] = mouse plasma, 37° C.; cited from earlier work
Cryptococcus neoformans [9] = experiment: Broth macrodilution assay (MIC, MFC), ATCC strains; format: cell-based
Description: as §3, §4, §5

[10] = cited from earlier work
[11] = dog plasma, 37° C.; cited from earlier work
[12] = test system: Cryptococcus uniguttulatus; experiment: Broth macrodilution assay; format: cell-based
Description: as §3, §4, §5

Cryptococcus laurentii [13] = experiment: Broth macrodilution assay; format: cell-based
Description: as §3, §4, §5

Cryptococcus ater = experiment: Broth macrodilution assay; format: cell-based; settings: ATCC 14247
Description: as §3, §4, §5

Candida lusitaniae = experiment: Broth macrodilution assay; format: cell-based; settings: ATCC 42720
Description: as §3, §4, §5

Rhodotorula mucilaginosa = experiment: Broth macrodilution assay; format: cell-based; settings: ATCC 9449
Description: as §3, §4, §5

Candida albicans [14] = experiment: Broth macrodilution assay; format: cell-based; settings: ATCC 90028
Description: as §3, §4, §5

Candida glabrata [15] = experiment: Broth macrodilution assay; format: cell-based; settings: ATCC 90030
Description: as §3, §4, §5

Candida parapsilosis = experiment: Broth macrodilution assay; format: cell-based; settings: ATCC 22019
Description: as §3, §4, §5

Cryptococcus albidus [16] = experiment: Broth macrodilution assay; format: cell-based
Description: as §3, §4, §5

[17] = human plasma, 37° C.; cited from earlier work
[18] = test system: Cryptococcus neoformans #90112; experiment: Effect of host factors (pH, human serum) on broth macrodilution MICs and MFCs; format: cell-based
Description: as §3, §4, §5
Broth macrodilution assays were performed with RPMI prepared at pH 5, pH 6 and pH 7, and in RPMI, with and without 50% normal human serum (Lampire Biological Labs). Cryptococcus neoformans #90112 was used in each case.

CC[C@H](C)[C@@H]([C@@H](CC(=O)N1CCC[C@H]1[C@H](OC)[C@@H](C)C(=O)N[C@@H](Cc1ccccc1)c1nccs1)OC)N(C)C(=O)[C@@H](NC(=O)[C@H](C(C)C)N(C)C)C(C)C [1a, dolastatin 10]
25-50 μg/disk: MIC (Cryptococcus neoformans [4])
0.0975 µg/mL: MFC ([2]; strain 94-2406)
0.39 µg/mL: MFC ([2]; strain 94-2483)
0.78 µg/mL: MIC ([2]; strain 94-2011) | MIC ([2]; strain 95-2792) | MIC (Cryptococcus neoformans [9]; ATCC 32045) | MIC (Cryptococcus neoformans [9]; ATCC 66031) | MIC (Cryptococcus neoformans [9]; ATCC 90112) | MIC ([18]; 50% human serum) | MIC ([18]; RPMI pH 7) | MIC ([18]; no serum)
3.12 µg/mL: MFC ([2]; strain 95-2792) | MIC (Cryptococcus neoformans [9]; ATCC 14116)
at least 24 h: stable in plasma [8] | stable in plasma [11] | stable in plasma [17]
>50 µg/mL: MIC (Rhizopus oligosporus) | MIC (Aspergillus fumigatus) | MIC ([12]; ATCC 34143) | MIC ([12]; ATCC 66033) | MIC (Cryptococcus laurentii [13]; ATCC 18803) | MIC (Cryptococcus laurentii [13]; ATCC 34142) | MIC (Cryptococcus laurentii [13]; ATCC 66036) | MIC (Cryptococcus ater) | MIC (Candida lusitaniae) | MIC (Rhodotorula mucilaginosa) | MIC (Candida albicans [14]) | MFC (Candida glabrata [15]) | MIC (Candida glabrata [15]) | MIC (Candida parapsilosis) | MIC (Cryptococcus albidus [16]; ATCC 10666) | MIC (Cryptococcus albidus [16]; ATCC 34140) | MIC (Cryptococcus albidus [16]; ATCC 66030) | MFC ([18]; RPMI pH 5) | MIC ([18]; RPMI pH 5)
0.195 µg/mL: MIC ([2]; strain 94-2483)
5.6 h: estimated elimination half-life [1]
0.0487 µg/mL: MIC ([2]; strain 94-2406)
>100 μg/disk: MIC (Cryptococcus laurentii [3]) | MIC (Candida albicans [5]) | MIC (Candida glabrata [6]) | MIC (Cryptococcus albidus [7])
>25 µg/mL: MFC (Candida albicans [14])
25 µg/mL: MFC ([18]; RPMI pH 6)
minimal toxicity: toxicity in patients with advanced solid tumors ([10]; doses up to 200 μg/m^2) | toxicity in human cancer clinical trials ([10]; doses up to 455 μg/m^2)
6.25 µg/mL: MFC (Cryptococcus neoformans [9]; ATCC 14116) | MIC ([18]; RPMI pH 6)
1.56 µg/mL: MFC ([2]; strain 94-2011) | MFC (Cryptococcus neoformans [9]; ATCC 32045) | MFC (Cryptococcus neoformans [9]; ATCC 66031) | MFC (Cryptococcus neoformans [9]; ATCC 90112) | MFC ([18]; 50% human serum) | MFC ([18]; RPMI pH 7) | MFC ([18]; no serum)
